Reference: US20060276464A1, “Diarylsulfone sulfonamides and use thereof” (Wyeth, priority 2005, published 2006)
Several values for one entry are separate records, joined by “and”; a condition that tells them apart may be missing. Equal entries are not always repeated. Where two headings read alike, the source gives them in different places.

Experiments:
SFRP-1 [1] = target: T1, SFRP-1 (Homo sapiens, UniProt Q8N474); assay: Fluorescence polarization binding assay (competitive displacement of a probe compound from SFRP-1); details: fluorescence anisotropy, 45 nM SFRP-1, 20 nM probe;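 note: test compound competes with a fluorescent probe held by SFRP-1, seen as a drop in probe anisotropy after incubation in darkness, with anisotropy as function of rising compound dose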
T1 sequence (Q8N474 32-314): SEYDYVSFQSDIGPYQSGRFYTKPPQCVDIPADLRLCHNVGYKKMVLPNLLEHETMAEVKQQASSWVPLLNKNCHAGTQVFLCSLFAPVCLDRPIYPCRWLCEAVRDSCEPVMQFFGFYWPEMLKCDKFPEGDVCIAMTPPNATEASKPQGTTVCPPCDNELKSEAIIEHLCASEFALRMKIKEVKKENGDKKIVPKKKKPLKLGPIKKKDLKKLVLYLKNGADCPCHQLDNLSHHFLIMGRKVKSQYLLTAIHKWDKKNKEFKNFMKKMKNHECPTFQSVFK

SFRP-1 [2] = target: T1, SFRP-1; assay: Cell-based assay for in vitro measurement of SFRP-1/SARP2 antagonist activity (U2OS cells co-transfected with 16x TCF-tk-Luciferase reporter, Wnt and hSFRP-1); details: for fold induction at 10 µM / fold induction at 15 µM / fold induction at 14 µM: U2OS; for fold induction at 10 µM: read-out: Fold Induction with SFRP-1, U2OS cells, single dose 10 μM, luciferase reporter, fold induction over SFRP-1 control;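 for all read-outs here: U2OS cells co-transfected with a TCF-tk luciferase reporter, a Wnt vector, hSFRP-1 or empty vector and CMV-βgal, luciferase luminescence read in cell lysates alongside βgal activity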
[3] = read-out: Fold Induction with SFRP-1, Conc 15 μM, with SFRP-1, fold induction over SFRP-1 control, single dose
[4] = read-out: Fold Induction without SFRP-1, Conc 15 μM, without SFRP-1, single dose
[5] = read-out: Fold Induction with SFRP-1, Conc 15 μM, single dose, luciferase reporter, fold induction over SFRP-1 control, cells with SFRP-1
[6] = read-out: Fold Induction without SFRP-1, Conc 15 μM, single dose, luciferase reporter, cells without SFRP-1 (specificity control)

SMILES | IC50 (SFRP-1 [1]) | EC50 (SFRP-1 [2]) | fold induction at 10 µM (SFRP-1 [2]) | also measured
CN(CCNS(=O)(=O)c1cc(S(=O)(=O)c2ccccc2)ccc1C(F)(F)F)C(=O)Nc1cccnc1 [Example 827, N-(2-{methyl[(pyridin-3-ylamino)carbonyl]amino}ethyl)-5-(phenylsulfonyl)-2-(trifluoromethyl)benzenesulfonamide] | 250 nM | 1710 nM | 3.5 | 
Cc1ccc(S(=O)(=O)c2ccc(NCC3CC3)cc2)cc1S(=O)(=O)NCCCn1ccnc1 [Example 368, 5-({4-[(cyclopropylmethyl)amino]phenyl}sulfonyl)-N-[3-(1H-imidazol-1-yl)propyl]-2-methylbenzenesulfonamide] | 900 nM |  |  | fold induction at 15 µM (SFRP-1 [2]; [3]): 2.5; fold induction at 15 µM (SFRP-1 [2]; [4]): 1
O=C(O)c1cccc(NC(=S)N2CCC(NS(=O)(=O)c3cc(S(=O)(=O)c4ccccc4)ccc3C(F)(F)F)CC2)c1 [Example 855, 3-({[4-({[5-(phenylsulfonyl)-2-(trifluoromethyl)phenyl]sulfonyl}amino)piperidin-1-yl]carbonothioyl}amino)benzoic acid] | 40 nM | 137 nM | 3.4 | 
Cc1ccc(S(=O)(=O)c2ccccc2)cc1S(=O)(=O)NC1CCN(S(=O)(=O)c2ccccc2)CC1 [Example 448, 2-methyl-5-(phenylsulfonyl)-N-[1-(phenylsulfonyl)piperidin-4-yl]benzenesulfonamide] | 120 nM and 170 nM |  |  | fold induction at 15 µM (SFRP-1 [2]; [3]): 2; fold induction at 15 µM (SFRP-1 [2]; [4]): 1.2
COc1ccc(C(=O)N2CCC(NS(=O)(=O)c3cc(S(=O)(=O)c4ccccc4)ccc3C)CC2)cc1OC [Example 464, N-[1-(3,4-dimethoxybenzoyl)piperidin-4-yl]-2-methyl-5-(phenylsulfonyl)benzenesulfonamide] | 3000 nM |  |  | fold induction at 15 µM (SFRP-1 [2]; [3]): 2.1; fold induction at 15 µM (SFRP-1 [2]; [4]): 1
CNc1ccc(S(=O)(=O)c2ccc(C(C)C)c(S(=O)(=O)NCCC3CCOCC3)c2)cc1 [Example 359, 2-isopropyl-5-{[4-(methylamino)phenyl]sulfonyl}-N-[2-(tetrahydro-2H-pyran-4-yl)ethyl]benzenesulfonamide] | 800 nM |  |  | fold induction at 15 µM (SFRP-1 [2]; [3]): 2.7; fold induction at 15 µM (SFRP-1 [2]; [4]): 0.9
COc1cc(C(=O)N2CCC(NS(=O)(=O)c3cc(S(=O)(=O)c4ccccc4)ccc3C(F)(F)F)CC2)cc(Cl)n1 [Example 715, N-[1-(2-chloro-6-methoxyisonicotinoyl)piperidin-4-yl]-5-(phenylsulfonyl)-2-(trifluoromethyl)benzenesulfonamide] | 400 nM | 1290 nM | 4.9 | 
CC(C)c1ccc(S(=O)(=O)c2ccc(N(C)C)cc2)cc1S(=O)(=O)NC1CCOCC1 [Example 544, 5-{[4-(dimethylamino)phenyl]sulfonyl}-2-isopropyl-N-(tetrahydro-2H-pyran-4-yl)benzenesulfonamide] | 800 nM and 1700 nM |  |  | fold induction at 15 µM (SFRP-1 [2]; [5]): 2.7; fold induction at 15 µM (SFRP-1 [2]; [6]): 1.2
O=S(=O)(N[C@H]1CCCNC1)c1cc(S(=O)(=O)c2ccccc2)ccc1C(F)(F)F [Example 790, 5-(phenylsulfonyl)-N-[(3S)-piperidin-3-yl]-2-(trifluoromethyl)benzenesulfonamide] | 2000 nM |  | 3.1 | 
O=C(O)[C@H]1CC[C@H](CNS(=O)(=O)c2cc(S(=O)(=O)c3ccccc3)ccc2C(F)(F)F)CC1 [Example 969, trans-4-[({[5-(phenylsulfonyl)-2-(trifluoromethyl)phenyl]sulfonyl}amino)methyl]cyclohexanecarboxylic acid] | 180 nM | 588 nM | 3.1 | 
O=S(=O)(NCCn1ccnc1)c1cc(S(=O)(=O)c2ccccc2)ccc1C(F)(F)F [Example 739, N-[2-(1H-Imidazol-1-yl)ethyl]-5-(phenylsulfonyl)-2-(trifluoromethyl)benzenesulfonamide] | 180 nM | 720 nM | 5.1 | 
O=S(=O)(NCCc1ccccn1)c1cc(S(=O)(=O)c2ccccc2)ccc1Br [Example 592, 2-bromo-5-(phenylsulfonyl)-N-(2-pyridin-2-ylethyl)benzenesulfonamide] | 1000 nM |  |  | fold induction at 15 µM (SFRP-1 [2]; [5]): 3.1; fold induction at 15 µM (SFRP-1 [2]; [6]): 1.1
N=C(N)Nc1ccc(CCNS(=O)(=O)c2cc(S(=O)(=O)c3ccccc3)ccc2C(F)(F)F)cc1 [Example 998, N-[2-(4-{[amino(imino)methyl]amino}phenyl)ethyl]-5-(phenylsulfonyl)-2-(trifluoromethyl)benzenesulfonamide] | 300 nM | 2200 nM |  | 
Nc1ccc(CNS(=O)(=O)c2cc(S(=O)(=O)c3ccccc3)ccc2C(F)(F)F)cc1 [Example 942, N-(4-aminobenzyl)-5-(phenylsulfonyl)-2-(trifluoromethyl)benzenesulfonamide] | 190 nM | 209 nM | 3.8 | 
CC(C)c1ccc(S(=O)(=O)c2ccc(N(C)C)cc2)cc1S(=O)(=O)NCCC1CCOCC1 [Example 546, 5-{[4-(dimethylamino)phenyl]sulfonyl}-2-isopropyl-N-[2-(tetrahydro-2H-pyran-4-yl)ethyl]benzenesulfonamide] | 1500 nM and 2600 nM |  |  | fold induction at 15 µM (SFRP-1 [2]; [5]): 2.2; fold induction at 15 µM (SFRP-1 [2]; [6]): 1.2
CC(C)c1ccc(S(=O)(=O)c2cc(Cl)cc(Cl)c2)cc1S(=O)(=O)NCCc1ccccn1 [Example 505, 5-[(3,5-dichlorophenyl)sulfonyl]-2-isopropyl-N-(2-pyridin-2-ylethyl)benzenesulfonamide] | 700 nM |  |  | fold induction at 15 µM (SFRP-1 [2]; [5]): 2.3; fold induction at 15 µM (SFRP-1 [2]; [6]): 1
COC(=O)[C@H]1CC[C@H](CNS(=O)(=O)c2cc(S(=O)(=O)c3ccccc3)ccc2C(F)(F)F)CC1 [Example 947, methyl trans-4-[({[5-(phenylsulfonyl)-2-(trifluoromethyl)phenyl]sulfonyl}amino)methyl]cyclohexanecarboxylate] | 400 nM | 695 nM | 3.2 | 
O=C(O)CN1CCC(CCNS(=O)(=O)c2cc(S(=O)(=O)c3ccccc3)ccc2C(F)(F)F)CC1 [Example 944, {4-[2-({[5-(phenylsulfonyl)-2-(trifluoromethyl)phenyl]sulfonyl}amino)ethyl]piperidin-1-yl}acetic acid] | 1700 nM | 1440 nM | 2.9 | 
Cc1ccc(S(=O)(=O)c2ccc(F)cc2)cc1S(=O)(=O)NCCCn1ccnc1 [Example 177, 5-[(4-fluorophenyl)sulfonyl]-N-[3-(1H-imidazol-1-yl)propyl]-2-methylbenzenesulfonamide] | 2900 nM |  |  | fold induction at 14 µM (SFRP-1 [2]; read-out: Fold Induction with SFRP-1, Conc 14 μM, with SFRP-1, fold induction over SFRP-1 control, single dose): 2.9; fold induction at 15 µM (SFRP-1 [2]; [3]): 3.6; fold induction at 14 µM (SFRP-1 [2]; read-out: Fold Induction without SFRP-1, Conc 14 μM, without SFRP-1, single dose): 1; fold induction at 15 µM (SFRP-1 [2]; [4]): 1
CC(C)c1ccc(S(=O)(=O)c2ccc(F)cc2)cc1S(=O)(=O)NC1CCN(C(=O)OC(C)(C)C)CC1 [Example 517, tert-butyl 4-[({5-[(4-fluorophenyl)sulfonyl]-2-isopropylphenyl}sulfonyl)amino]piperidine-1-carboxylate] | 1600 nM |  |  | fold induction at 15 µM (SFRP-1 [2]; [5]): 2.2; fold induction at 15 µM (SFRP-1 [2]; [6]): 1
CC(C)c1ccc(S(=O)(=O)c2ccc(F)cc2)cc1S(=O)(=O)NCC(O)c1ccccc1 (centres unmarked) [Example 732, 5-[(4-fluorophenyl)sulfonyl]-N-(2-hydroxy-2-phenylethyl)-2-isopropylbenzenesulfonamide] | 1100 nM |  | 4.2 | 
O=C([C@@H]1CSCN1)N1CCC(NS(=O)(=O)c2cc(S(=O)(=O)c3ccccc3)ccc2C(F)(F)F)CC1 [Example 1056, 5-(phenylsulfonyl)-N-{1-[(4R)-1,3-thiazolidin-4-ylcarbonyl]piperidin-4-yl}-2-(trifluoromethyl)benzenesulfonamide] | 40 nM | 294 nM |  | 
O=C(O)c1ccc2c(c1)CC(NS(=O)(=O)c1cc(S(=O)(=O)c3ccccc3)ccc1C(F)(F)F)C2 (centres unmarked) [Example 1082, 2-({[5-(phenylsulfonyl)-2-(trifluoromethyl)phenyl]sulfonyl}amino)indane-5-carboxylic acid] | 16 nM | 289 nM |  | 
COc1ccc2c(c1)CC(NS(=O)(=O)c1cc(S(=O)(=O)c3ccccc3)ccc1C(F)(F)F)C2 (centres unmarked) [Example 991, N-(5-methoxy-2,3-dihydro-1H-inden-2-yl)-5-(phenylsulfonyl)-2-(trifluoromethyl)benzenesulfonamide] | 80 nM | 2640 nM |  | 
CC(C)c1ccc(S(=O)(=O)c2cccc(C(F)(F)F)c2)cc1S(=O)(=O)NCCc1ccccn1 [Example 508, 2-isopropyl-N-(2-pyridin-2-ylethyl)-5-{[3-(trifluoromethyl)phenyl]sulfonyl}benzenesulfonamide] | 1300 nM |  |  | fold induction at 15 µM (SFRP-1 [2]; [5]): 2.3; fold induction at 15 µM (SFRP-1 [2]; [6]): 0.9
CC(C)c1ccc(S(=O)(=O)c2ccc(N(C)C)cc2)cc1S(=O)(=O)NCCc1ccccn1 [Example 507, 5-{[4-(dimethylamino)phenyl]sulfonyl}-2-isopropyl-N-(2-pyridin-2-ylethyl)benzenesulfonamide] | 500 nM |  |  | fold induction at 15 µM (SFRP-1 [2]; [5]): 2.7; fold induction at 15 µM (SFRP-1 [2]; [6]): 0.9
